In ChEMBL document CHEMBL1129258, “Synthesis and structure-activity relationships of 2-pyridones: a novel series of potent DNA gyrase inhibitors as antibacterial agents” (J Med Chem, 1996):
Values after ≈ are worked out from the molar mass of the structure shown.

Key:
[1] = target: T1, DNA gyrase (Staphylococcus aureus) (UniProt P0A0K8+P20831); test: In vitro antibacterial activity against gram-positive organism Staphylococcus aureus ATCC 6538p; type: functional
[2] = target: T2, DNA gyrase (Escherichia coli) (UniProt P0AES6+P0AES4); test: In vitro antibacterial activity against gram-positive organism Streptococcus bovis A-5169; type: functional; conditions: Streptococcus equinus
[3] = target: T1, DNA gyrase (Staphylococcus aureus); test: In vitro antibacterial activity against gram-positive organism Staphylococcus aureus NCTC-10649M; type: functional
[4] = In vitro antibacterial activity against gram-negative organism Pseudomonas aeruginosa DPHD-2862; type: functional; conditions: Pseudomonas aeruginosa; read-out: MIC
[5] = target: T2, DNA gyrase (Escherichia coli); test: In vitro antibacterial activity against gram-negative organism Klebsiella pneumoniae ATCC 8045; type: functional
Streptococcus pyogenes = test: In vitro antibacterial activity against gram-positive organism Streptococcus pyogenes EES61; type: functional; conditions: Streptococcus pyogenes; read-out: MIC
[6] = target: T2, DNA gyrase (Escherichia coli); test: In vitro antibacterial activity against gram-positive organism Enterococcus faecium ATCC 8043; type: functional
[7] = target: T2, DNA gyrase (Escherichia coli); test: In vitro antibacterial activity against gram-negative organism […] ATCC 13048; type: functional; conditions: Enterobacter aerogenes
[8] = In vitro antibacterial activity against gram-negative organism Pseudomonas aeruginosa 5007; type: functional; conditions: Pseudomonas aeruginosa; read-out: MIC
[9] = target: T2, DNA gyrase (Escherichia coli); test: In vitro antibacterial activity against gram-negative organism Prov. stuartii CMX-640; type: functional; conditions: Providencia stuartii
[10] = target: T2, DNA gyrase (Escherichia coli); test: In vitro antibacterial against gram-negative organism Escherichia coli JUHL; type: functional; conditions: Escherichia coli K-12
[11] = target: T2, DNA gyrase (Escherichia coli); conditions: Escherichia coli K-12
Description: Concentration which causes 50% of the gyrase (Escherichia coli H560)-mediated maximal DNA cleavage.

[12] = target: T1, DNA gyrase (Staphylococcus aureus); test: In vitro antibacterial activity against gram-positive organism Staphylococcus aureus 1775; type: functional

| Compound | MIC [1] | MIC [2] | MIC [3] | MIC [4] | MIC [5] | MIC (Streptococcus pyogenes) | MIC [6] | MIC [7] | MIC [8] | MIC [9] | MIC [10] | MIC [12] | CC50 [11] |
| --- | --- | --- | --- | --- | --- | --- | --- | --- | --- | --- | --- | --- | --- |
| CC(=O)N[C@H]1C[C@H](C)N(c2nc3c(-c4ccc(F)cc4F)cc(C(=O)O)c(=O)n3cc2F)C1 | 0.1 µg/mL (≈ 0.217 µM) | 3.1 µg/mL (≈ 6.73 µM) | 0.2 µg/mL (≈ 0.434 µM) | > 100 µg/mL | 0.39 µg/mL (≈ 0.847 µM) | 0.78 µg/mL (≈ 1.69 µM) | 1.56 µg/mL (≈ 3.39 µM) | 3.1 µg/mL (≈ 6.73 µM) | 3.1 µg/mL (≈ 6.73 µM) | 25 µg/mL (≈ 54.3 µM) | 0.78 µg/mL (≈ 1.69 µM) | 25 µg/mL (≈ 54.3 µM) | 1.3 µg/mL (≈ 2.82 µM) |
| O=C(O)c1cc(C2CC2)c2cc(N3CCNCC3)c(F)cn2c1=O | 0.2 µg/mL (≈ 0.604 µM) | 3.1 µg/mL (≈ 9.36 µM) | 0.39 µg/mL (≈ 1.18 µM) | 25 µg/mL (≈ 75.4 µM) | 0.01 µg/mL (≈ 0.0302 µM) | 1.56 µg/mL (≈ 4.71 µM) | 0.78 µg/mL (≈ 2.35 µM) | 0.05 µg/mL (≈ 0.151 µM) | 0.39 µg/mL (≈ 1.18 µM) | 1.56 µg/mL (≈ 4.71 µM) | 0.01 µg/mL (≈ 0.0302 µM) | 50 µg/mL (≈ 151 µM) | 0.15 µg/mL (≈ 0.453 µM) |
| CCc1cc(C(=O)O)c(=O)n2cc(F)c(N3CCC(N)C3)c(C)c12 (stereo not given) | 0.1 µg/mL (≈ 0.3 µM) | 0.78 µg/mL (≈ 2.34 µM) | 0.1 µg/mL (≈ 0.3 µM) | 12.5 µg/mL (≈ 37.5 µM) | 0.02 µg/mL (≈ 0.06 µM) | 0.39 µg/mL (≈ 1.17 µM) | 0.2 µg/mL (≈ 0.6 µM) | 0.05 µg/mL (≈ 0.15 µM) | 0.2 µg/mL (≈ 0.6 µM) | 0.78 µg/mL (≈ 2.34 µM) | 0.01 µg/mL (≈ 0.03 µM) | 12.5 µg/mL (≈ 37.5 µM) | 3.2 µg/mL (≈ 9.6 µM) |
| Cc1c(NCCN)c(F)cn2c(=O)c(C(=O)O)cc(C3CC3)c12 | 0.78 µg/mL (≈ 2.44 µM) | 12.5 µg/mL (≈ 39.1 µM) | 1.56 µg/mL (≈ 4.89 µM) | 50 µg/mL (≈ 157 µM) | 0.2 µg/mL (≈ 0.626 µM) | 6.2 µg/mL (≈ 19.4 µM) | 3.1 µg/mL (≈ 9.71 µM) | 0.39 µg/mL (≈ 1.22 µM) | 0.78 µg/mL (≈ 2.44 µM) | 6.2 µg/mL (≈ 19.4 µM) | 0.2 µg/mL (≈ 0.626 µM) | > 100 µg/mL | 0.8 µg/mL (≈ 2.51 µM) |
| O=C(O)c1cc(C2CC2)c2nc(N3CCNCC3)c(F)cn2c1=O | 0.78 µg/mL (≈ 2.35 µM) | 12.5 µg/mL (≈ 37.6 µM) | 1.56 µg/mL (≈ 4.69 µM) | 100 µg/mL (≈ 301 µM) | 0.05 µg/mL (≈ 0.15 µM) | 12.5 µg/mL (≈ 37.6 µM) | 12.5 µg/mL (≈ 37.6 µM) | 0.05 µg/mL (≈ 0.15 µM) | 0.39 µg/mL (≈ 1.17 µM) | 12.5 µg/mL (≈ 37.6 µM) | 0.05 µg/mL (≈ 0.15 µM) | 50 µg/mL (≈ 150 µM) | 2 µg/mL (≈ 6.02 µM) |

Further molecules by falling MIC [1], results first:

| MIC [1] | MIC [2] | MIC [3] | MIC [4] | MIC [5] | MIC (Streptococcus pyogenes) | MIC [6] | MIC [7] | MIC [8] | MIC [9] | MIC [10] | MIC [12] | Compound | CC50 [11] |
| --- | --- | --- | --- | --- | --- | --- | --- | --- | --- | --- | --- | --- | --- |
| 50 µg/mL (≈ 109 µM) | > 100 µg/mL | 50 µg/mL (≈ 109 µM) | > 100 µg/mL | 3.1 µg/mL (≈ 6.76 µM) | > 100 µg/mL | > 100 µg/mL | 6.2 µg/mL (≈ 13.5 µM) | 50 µg/mL (≈ 109 µM) | > 100 pug ml-1 | 6.2 µg/mL (≈ 13.5 µM) | > 100 µg/mL | NC1CCN(c2nc3c(-c4c(F)c(F)c(F)c(F)c4F)cc(C(=O)O)c(=O)n3cc2F)C1 (stereo not given) | 12.5 µg/mL (≈ 27.3 µM) |
| 3.1 µg/mL | 25 µg/mL | 6.2 µg/mL | – | 3.1 µg/mL | 25 µg/mL | 50 µg/mL | 3.1 µg/mL | 6.2 µg/mL | 25 µg/mL | 3.1 µg/mL | – | CCc1cc(C(=O)O)c(=O)n2ccc(N3CCC(N)C3)cc12.Cl (stereo not given) | – |
| 1.56 µg/mL (≈ 4.5 µM) | 50 µg/mL (≈ 144 µM) | 0.78 µg/mL (≈ 2.25 µM) | > 100 µg/mL | 0.1 µg/mL (≈ 0.289 µM) | 12.5 µg/mL (≈ 36.1 µM) | 12.5 µg/mL (≈ 36.1 µM) | 0.39 µg/mL (≈ 1.13 µM) | 3.1 µg/mL (≈ 8.95 µM) | 50 µg/mL (≈ 144 µM) | 0.2 µg/mL (≈ 0.577 µM) | 100 µg/mL (≈ 289 µM) | CN1CCN(c2nc3c(C4CC4)cc(C(=O)O)c(=O)n3cc2F)CC1 | 1 µg/mL (≈ 2.89 µM) |
| 0.1 µg/mL (≈ 0.306 µM) | – | 0.2 µg/mL (≈ 0.611 µM) | > 100 µg/mL | 0.2 µg/mL (≈ 0.611 µM) | 1.56 µg/mL (≈ 4.77 µM) | 0.39 µg/mL (≈ 1.19 µM) | 0.39 µg/mL (≈ 1.19 µM) | 6.2 µg/mL (≈ 18.9 µM) | 12.5 µg/mL (≈ 38.2 µM) | 0.39 µg/mL (≈ 1.19 µM) | 6.2 µg/mL (≈ 18.9 µM) | Cc1c(-n2ccnc2)c(F)cn2c(=O)c(C(=O)O)cc(C3CC3)c12 | 0.3 µg/mL (≈ 0.917 µM) |
| 0.1 µg/mL (≈ 0.28 µM) | 0.39 µg/mL (≈ 1.09 µM) | 0.2 µg/mL (≈ 0.56 µM) | 6.2 µg/mL (≈ 17.3 µM) | 0.05 µg/mL (≈ 0.14 µM) | 0.2 µg/mL (≈ 0.56 µM) | 0.2 µg/mL (≈ 0.56 µM) | 0.1 µg/mL (≈ 0.28 µM) | 0.2 µg/mL (≈ 0.56 µM) | 0.78 µg/mL (≈ 2.18 µM) | 0.02 µg/mL (≈ 0.056 µM) | 6.2 µg/mL (≈ 17.3 µM) | Cc1c(N2C[C@@H]3C[C@H]2CN3)c(F)cn2c(=O)c(C(=O)O)cc(C3CC3)c12 | – |
| 0.05 µg/mL | 0.78 µg/mL | 0.05 µg/mL | > 100 µg/mL | 0.02 µg/mL | 0.39 µg/mL | 0.2 µg/mL | 0.05 µg/mL | 0.39 µg/mL | 1.56 µg/mL | 0.05 µg/mL | > 100 µg/mL | Cc1ccc(S(=O)(=O)O)cc1.NC1CCN(c2nc3c(cc2F)c(=O)c(C(=O)O)cn3-c2ccc(F)cc2F)C1 (stereo not given) [TOSUFLOXACIN TOSYLATE] | – |
| 0.05 µg/mL (≈ 0.138 µM) | 0.39 µg/mL (≈ 1.08 µM) | 0.05 µg/mL (≈ 0.138 µM) | 3.1 µg/mL (≈ 8.58 µM) | 0.01 µg/mL (≈ 0.0277 µM) | 0.2 µg/mL (≈ 0.553 µM) | 0.2 µg/mL (≈ 0.553 µM) | 0.05 µg/mL (≈ 0.138 µM) | 0.39 µg/mL (≈ 1.08 µM) | 1.56 µg/mL (≈ 4.32 µM) | 0.02 µg/mL (≈ 0.0553 µM) | 3.1 µg/mL (≈ 8.58 µM) | COc1c(N2CCC(N)C2)c(F)cn2c(=O)c(C(=O)O)cc(C3CC3)c12 (stereo not given) | 0.3 µg/mL (≈ 0.83 µM) |
